Test results: EP0454058B1, “Use of anthraquinone derivatives in the prophylaxis and treatment of viral diseases” (LOMAPHARM Rudolf Lohmann GmbH KG Pharmazeutische Fabrik, priority 1990, dated 1991)
Converted amounts (≈) assume the structure as drawn. Where two headings read alike, the source gives them in different places.

Columns and labels:
Assay type in all cases: cell-based
[1] = test system: Herpes simplex-Viren; test: Plaque inhibition test (Plaquehemmungstest, agar diffusion test); details: read-out: Hemmhofdurchmesser (mm)
Text: Der Plaquehemmungstest (Agardiffusionstest) wird nach der Methode von E. C. Herrmann et al., 1960 (6) durchgeführt. Auch bei diesem Test werden virusinfizierte tierische Zellkulturen verwendet. In diesem Fall wird in Petrischalen durch ein mit Hilfe von Agar verfestigtes Medium das unkontrollierte Ausbreiten der Viren verhindert. Es kommt zu einer lokal begrenzten Zerstörung der Zellen, die nach einer Färbung als Löcher im Zellrasen erkennbar ist. Die Testsubstanzen werden auf Filterpapierblättchen aufgetragen und auf das feste Medium aufgelegt. In einem Bereich um diese Blättchen werden durch die virustatische Wirkung der Testsubstanz die Zellen geschützt und es entstehen so kreisförmige Hemmzonen. Die Größe der Hemmzone kann als Maß für die virustatische Wirksamkeit ausgewertet werden.
Durchführung: Ein Monolayer von MK2-, HeLa-, Rita-Zellen oder einer anderen geeigneten Zellinie wird in einer Petrischale mit Viren infiziert, so daß eine große Zahl von einzelnen Plaques entsteht. Nach einer Bindung von 45 Minuten bei Zimmertemperatur wird der Zellrasen einmal mit phosphatgepufferter Kochsalzlösung gewaschen und mit einer Agar-Oberschicht versehen. Auf diese Agarschicht werden Filterpapierblättchen (10 mm Durchmesser) gelegt, die mit einer Lösung der Testsubstanz getränkt sind. Nach 48 bis 72 Stunden Bebrütung bei 37 °C in CO2-Atmosphäre (5 %) wird eine zweite Oberschicht darübergegeben, die den Vitalfarbstoff Tetrazoliumchlorid enthält. Nach weiteren 24 Stunden Bebrütung wird der Hemmhofdurchmesser, unterteilt in "toxische Zone" und "therapeutische Zone", in mm ausgemessen.

[2] = test system: HHV 6 (Human herpes-Virus Typ 6); test: Virus replication in human lymphocyte cultures, passages in presence of substance; details: 10 µg/ml, after three passages
Text: In weiteren Versuchen wurde die Wirkung von Alizarin auf die Vermehrung von HHV 6 (Human herpes-Virus Typ 6) untersucht. Diese Viren lassen sich aus dem Blut von immunsupprimierten Patienten mit Leukämie, Lymphomen oder Aids sowie von Kindern mit Roseola infantum isolieren.
Die Testung erfolgte in menschlichen Lymphocytenkulturen.

[3] = test system: Cytomegalie-Viren; test: Plaque reduction test (Plaquereduktionstest) in human foreskin fibroblasts; details: Fibroblast, plaque count versus virus control, read-out: Hemmung (%)
Text: Für die Prüfung der Wirksamkeit gegenüber Cytomegalie-Viren (CMV) werden mit diesen Viren infizierte menschliche Vorhautfibroblasten eingesetzt. Nach der Inkubation werden die entstandenen Plaques angefärbt und ausgezählt. Zur Auswertung wird die Plaquezahl unter dem Einfluß einer definierten Substanzmenge mit der Viruskontrolle verglichen.
Mit einer ähnlichen Versuchsanordnung wie im Plaquehemmungstest kann die Wirkung des Alizarins gegen Cytomegalie-Viren bestimmt werden (siehe Plaquereduktionstest, Methode 3). Die Untersuchung für das Cytomegalie-Virus in einer Zellinie von menschlichen Vorhautfibroblasten ergab die in Tabelle II angegebenen Werte für die Hemmung im Vergleich zur Viruskontrolle. Zur Auswertung wurden hier die gebildeten Plaques gezählt und im Vergleich zur Viruskontrolle ausgewertet (siehe Tabelle II). Tabelle II

[4] = test system: Herpes simplex-Viren; test: Dye test (Farbtest, crystal violet): virustatic effect in virus-infected cell cultures; details: for Extinktion bei 546 nm Hela-Zellen mit Herpes-Virus: virus control 0,144, cell control 0,648
Text: (§1) Der Farbtest, wie von Armstrong, 1971 (5) beschrieben, beruht darauf, daß die durch die Viren zerstörten Zellen nicht mehr gefärbt werden können. Je höher der Anteil an intakten Zellen nach der Inkubation mit dem jeweiligen Virus durch die virustatische Wirkung einer Substanz ist, um so mehr Farbstoff wird gebunden. Der Farbstoff läßt sich aus den gefärbten Zellen extrahieren und seine Menge kann in einem Photometer, z. B. bei Verwendung von Kristallviolett bei 546 nm, gemessen werden. Damit erlaubt der Test meßbare und reproduzierbare Angaben sowohl über die virustatische, wie auch durch Parallelversuche mit Zellkulturen ohne Viren über die cytotoxische Wirkung von Substanzen.
(§2) Durchführung: 10 mg der Testsubstanz wurden in 10 ml Ethylalkohol gelöst. Unter Verwendung des Mediums für die Zellkultur wurde eine Verdünnungsreihe mit Konzentrationen von 1,56 µg/ml bis 25 µg/ml Testsubstanz eingestellt. Diese Lösungen werden auf 24 Stunden alte MK2-, HeLa-, Rita-Zellen oder andere geeignete Zellen gegeben, nachdem diese vorher 45 Minuten zur Infektion mit einer Suspension von Viren überschichtet worden waren. Zur Prüfung der Cytotoxizität werden Parallelansätze ohne Viruszugabe analog mit den verschiedenen Verdünnungsstufen der Prüfsubstanz überschichtet. Die Versuchsansätze mit Virus und Testsubstanz bzw. nur der Testsubstanz werden 72 Stunden bei 37 °C bebrütet. Anschließend werden die Zellen fixiert und für 15 Minuten mit Kristallviolettlösung gefärbt. Nach Spülen mit Wasser wird der an die Zellen gebundene Farbstoff mit Ethanol extrahiert und in einem Photometer die Extinktion bei 546 nm (Absorption für Kristallviolett) gemessen.
Zur Auswertung werden die Extinktionen und auch die Konzentration mit einem Zellschutz von 50 % berechnet.
Falls die Testsubstanz keine wesentlichen cytotoxischen Eigenschaft besitzt, kann die antivirale Schutzwirkung nach nach folgender Formel in Prozent berechnet werden: (E3 - E2)/(E1 - E2)x 100 [formula] E1 = Extinktion der Zellkontrolle E2 = Extinktion der Viruskontrolle E3 = Extinktion der Versuchsansätze mit Virus und Alizarin

[5] = test system: Hela-Zellen; test: Dye test (Farbtest), parallel runs without virus: cytotoxicity; details: for Extinktion bei 546 nm Hela-Zellen: cells without virus, 72 h
Text: as §1, §2

[6] = Substanzmenge 10 µg/ml pro Testblättchen, Rita-Zellen
[7] = Substanzmenge 20 µg/ml pro Testblättchen, Rita-Zellen
[8] = Substanzmenge 40 µg/ml pro Testblättchen, Rita-Zellen

O=C1c2ccccc2C(=O)c2c(O)ccc(O)c21 [Chinizarin (3), 1,4-Dihydroxyanthrachinon]
zone of inhibition at 10 µg/mL [1, 6]: 11 mm | zone of inhibition at 20 µg/mL [1, 7]: 13 mm | zone of inhibition at 40 µg/mL [1, 8]: 16 mm

O=C1c2cccc(O)c2C(=O)c2c(O)cccc21 [Chrysazin (4), 1,8-Dihydroxyanthrachinon]
zone of inhibition at 10 µg/mL [1, 6]: 8 mm | zone of inhibition at 20 µg/mL [1, 7]: 12 mm | zone of inhibition at 40 µg/mL [1, 8]: 16 mm

O=C1c2ccc(O)cc2C(=O)c2ccc(O)cc21 [Anthraflavinsäure (5), 2,6-Dihydroxyanthrachinon]
zone of inhibition at 10 µg/mL [1, 6]: 9 mm | zone of inhibition at 20 µg/mL [1, 7]: 13 mm | zone of inhibition at 40 µg/mL [1, 8]: 15 mm

O=C1c2ccccc2C(=O)c2c1ccc(O)c2O [Alizarin, 1,2-Dihydroxy-9,10-anthracendion]
Virus nachweisbar in den Zellen [2]: kein Virus mehr nachweisbar | zone of inhibition at 10 µg/mL [1]: 14 mm | zone of inhibition at 20 µg/mL [1]: 18 mm | zone of inhibition at 40 µg/mL [1]: 20 mm | inhibition at 5 µg/mL ([3]; 5 µg/ml): 10% | inhibition at 10 µg/mL ([3]; 10 µg/ml): 60% | inhibition at 15 µg/mL ([3]; 15 µg/ml): 100% | inhibition at 20 µg/mL ([3]; 20 µg/ml): 100% | Extinktion bei 546 nm Hela-Zellen mit Herpes-Virus ([4]; 25 µg/ml, 72 h): 0,235 | Extinktion bei 546 nm Hela-Zellen mit Herpes-Virus ([4]; 3,125 µg/ml, 72 h): 0,329 | Extinktion bei 546 nm Hela-Zellen mit Herpes-Virus ([4]; 1,56 µg/ml, 72 h): 0,206 | Extinktion bei 546 nm Hela-Zellen mit Herpes-Virus ([4]; 6,25 µg/ml, 72 h): 0,403 | Extinktion bei 546 nm Hela-Zellen mit Herpes-Virus ([4]; 12,5 µg/ml, 72 h): 0,338 | inhibition at 3.125 µg/mL ([4]; 72 h, 3.125 µg/mL, Hela-Zellkulturen, read-out: Zellschutz (%)): 37% | inhibition at 25 µg/mL ([4]; 72 h, 25 µg/ml, Hela-Zellkulturen, read-out: Zellschutz (%)): 18% | inhibition at 1.56 µg/mL ([4]; 72 h, 1,56 µg/ml, Hela-Zellkulturen, read-out: Zellschutz (%)): 12% | inhibition at 6.25 µg/mL ([4]; 72 h, 6,25 µg/ml, Hela-Zellkulturen, read-out: Zellschutz (%)): 51% | inhibition at 12.5 µg/mL ([4]; 72 h, 12,5 µg/ml, Hela-Zellkulturen, read-out: Zellschutz (%)): 38% | EC50 ([4]; experiment of Tabelle I a, read-out: Konzentration, die einen Zellschutz von 50 % bewirkt): 5.96 µg/mL (≈ 24.8 µM) | IC50 ([4]; in presence of 10 % Serum, read-out: 50 % Hemmwert): 11.3 µg/mL | IC50 ([4]; mean of four experiments, read-out: Mittelwert für eine 50 %ige Hemmung der Virusvermehrung): 4.87 µg/mL (≈ 20.3 µM) | Extinktion bei 546 nm Hela-Zellen ([5]; 25 µg/ml): 0,328 | Extinktion bei 546 nm Hela-Zellen ([5]; 3,125 µg/ml): 0,693 | Extinktion bei 546 nm Hela-Zellen ([5]; 1,56 µg/ml): 0,655 | Extinktion bei 546 nm Hela-Zellen ([5]; 6,25 µg/ml): 0,634 | Extinktion bei 546 nm Hela-Zellen ([5]; 12,5 µg/ml): 0,510 | cytotoxische Wirkung ([5]; at the higher concentrations of Tabelle I a / I b): schwache cytotoxische Wirkung

O=C1c2ccccc2C(=O)c2c1cc(S(=O)(=O)O)c(O)c2O [Alizarinsulfonsäure (2), 9,10-Dihydro-3,4-dihydroxy-9,10-dioxo-2-anthracensulfonsäure.Mononatriumsalz]
zone of inhibition at 10 µg/mL [1, 6]: 10 mm | zone of inhibition at 20 µg/mL [1, 7]: 12 mm | zone of inhibition at 40 µg/mL [1, 8]: 19 mm
